Test results reported in patent US20190070170A1, “METHOD OF S[…]-1” (Macau University of Science and Technology, priority 2017, published 2019).

Key:
PGE2 = PGE2 production in LPS-stimulated rat peritoneal macrophages (ELISA); format: cell-based; settings: SIN 160, 320 or 640 μM or 0.5 μM DEX 1 h, then LPS 1 μg/ml 24 h
Procedure: Sprague-Dawley (SD) rats from the University of Hong Kong were housed in cages with free access to food and water. Peritoneal macrophages of SD rats were isolated as described in Liu J. et al., Pharmacological research 2016, 111:303-315. Briefly, untreated rats were sacrificed and after laparotomy, about 50 ml cold sterile Hank's balanced salt solution (HBSS) was used to lavage the peritoneal cavity at twice, and then the peritoneal lavage fluid was collected and centrifuged at 1500 rpm for 10 min. The cell pellets was suspended at a density 1.5×10^6 cells/ml in pre-hearted DMEM medium with 10% heat-inactivated FBS, penicillin G (100 units/ml), streptomycin ([…]), and L-glutamine (2 mM), followed by seeding in 6-well plates at a density of 4.5×10^6 cells and incubation for 2 h. Then the medium were discarded to remove the non-adherent cells. The adherent cells were further washed for two times with pre-heated DMEM medium to remove floating cells. Next, cells were pre-treated with various concentration of SIN for 1 h, followed by stimulation with LPS (1 μg/ml).
RAW264.7 cells and rat peritoneal macrophages were seeded in a 96-well plate at density of 1.4×10^4 and 1.5×10^5 cells, respectively. […] The optical density was measured at 570 nm against a reference wavelength of 650 nm using a microplate UV/VIS spectrophotometer (Tecan, Mannedorf, Switzerland). […]

NF-κB (mPGES-1 promoter) = biological target: T1, NF-κB (mPGES-1 promoter) (Rattus norvegicus, UniProt Q7TQN4); assay: ChIP assay: NF-κB DNA binding to mPGES-1 promoter in LPS-stimulated rat peritoneal macrophages; format: cell-based; settings: 640 μM SIN 1 h, 1 μg/ml LPS 30 min
T1 construct: Peritoneal macrophages of SD rats were isolated; endogenous in cells; host or cells: primary peritoneal macrophages of SD rats
T1 sequence (Q7TQN4 whole entry): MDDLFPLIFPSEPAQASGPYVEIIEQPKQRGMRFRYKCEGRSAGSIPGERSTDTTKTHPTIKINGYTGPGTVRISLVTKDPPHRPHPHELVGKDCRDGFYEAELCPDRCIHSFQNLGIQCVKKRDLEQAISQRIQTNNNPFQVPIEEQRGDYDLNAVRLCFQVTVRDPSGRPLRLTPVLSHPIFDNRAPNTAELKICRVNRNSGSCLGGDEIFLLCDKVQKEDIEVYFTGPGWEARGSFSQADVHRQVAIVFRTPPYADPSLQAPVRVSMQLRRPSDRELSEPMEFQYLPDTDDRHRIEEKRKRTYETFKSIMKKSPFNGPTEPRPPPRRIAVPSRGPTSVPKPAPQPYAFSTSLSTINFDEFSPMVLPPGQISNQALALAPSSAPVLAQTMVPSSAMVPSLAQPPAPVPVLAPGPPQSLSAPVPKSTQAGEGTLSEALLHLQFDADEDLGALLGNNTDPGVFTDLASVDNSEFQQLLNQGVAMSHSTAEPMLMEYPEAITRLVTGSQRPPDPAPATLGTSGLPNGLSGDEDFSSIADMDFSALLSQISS
Procedure: Rat peritoneal macrophages were pretreated with 640 μM SIN (1 h) and stimulated with 1 μg/ml LPS (30 min) before fixation at room temperature for 10 min with 1% formaldehyde. Fixation was terminated by adding glycine (to 0.125 M) with an additional incubation of 5 min, then the cells were washed twice with ice-cold PBS and harvested by scraping and centrifugation (1500 rpm for 10 min at 4° C.). Cell lysis was performed using ChIP kit from abcam (Cambridge, UK) according to the manufacturer's instructions. Briefly, cell pellets were resuspended in 1 ml Buffer B by pipetting up and down several times in a microcentrifuge tube and incubated at room temperature for 10 min. After centrifugation at 5000 rpm, the pellet was collected and resuspended in ice cold Buffer C and incubated on ice for 10 min, followed by centrifugation (5,000 rpm for 10 min at 4° C.). The pellet was mixed with 100 μl Buffer D containing protease inhibitors, incubated on ice for 10 min and sonicated for 30 cycles in a Bioruptor UCD-300 sonicator (power on high, 30 s on, 30 s off per cycle), yielding DNA fragments of 150-200 bps (the size of sonicated chromatin was checked through running 2% agarose gel). Beads were blocked overnight in PBS with 0.5% BSA and then added to the samples. […]

SMILES: COC1=C[C@@H]2[C@@H]3Cc4ccc(OC)c(O)c4[C@]2(CCN3C)CC1=O [SIN, sinomenine]
- PGE2 production (PGE2): significant inhibition of PGE2 production in a dose dependent manner
- DNA binding of NF-κB to the promoter of mPGES-1 (NF-κB (mPGES-1 promoter)): selectively inhibited
